Literature values, collected in US7825087B2 (Elan Pharma International Limited, priority 2005, dated 2010).

Assays:
bone marrow = conditions: animal models or man
[1] = distribution in blood, concentration dependent

[R—[R*,R*-(E)]]-cyclic (L-alanyl-D-alanyl-N-methyl-L-leucyl-N-methyl-L-leucyl-N-methyl-L-valyl-3-hydroxy-N,4-dimethyl-L-2-amino-6-octenoyl-L-(alpha)-amino-butyryl-N-methylglycyl-N-methyl-L-leucyl-L-valyl-N-methyl-L-leucyl) [cyclosporine]
bone marrow suppression (bone marrow): does not cause bone marrow suppression | fraction in erythrocytes [1]: 41%-58% | fraction in granulocytes [1]: 5%-12% | fraction in lymphocytes [1]: 4%-9%
